The values that follow come from patent US9238021B2, “Method of producing a cationic liposomal preparation comprising a lipophilic compound” (MEDIGENE AG, priority 2002, dated 2016).

For series [1] the following is noted: murine plasma; cited from earlier work.
For series [2] the following is noted: human plasma; cited from earlier work.
Series [3] can be described thus: Solubility of docetaxel in trehalose or water. The series is classed as physicochemical.

≈ marks a conversion by molar mass, not a printed value.

`C/C1=C/C[C@@H](/C(C)=C/c2csc(C)n2)OC(=O)C[C@H](O)C(C)(C)C(=O)[C@H](C)[C@@H](O)[C@@H](C)CCC1` [desoxy-epothilone B]: the “in vitro half life” value in series [1] is recorded as about 20 min. Further, the half life entry in series [2] is given as “around 3 h”.

Usually solubility stands for the dissolved amount per volume that the medium holds. Low readings indicate little dissolved substance, high ones much dissolved substance. Turning to `CC(=O)O[C@@]12CO[C@@H]1C[C@H](O)[C@@]1(C)C(=O)[C@H](O)C3=C(C)[C@@H](OC(=O)[C@H](O)[C@@H](NC(=O)OC(C)(C)C)c4ccccc4)C[C@@](O)([C@@H](OC(=O)c4ccccc4)[C@H]21)C3(C)C` [docetaxel], the solubility in series [3] was about 20 µM (≈ 16.2 µg/mL).
